Measurements reported in US8071556B2, “Peptide substance revealing a stress protective effect, pharmaceutical composition on its base, and the method of its application” (Obschestvo S Ogranichennoi Otvetstevennostyu “Sia Peptides”, priority 2006, dated 2011).
Positions of bridges follow the written chain, without caps; N, C: chain ends. Non-standard residues stand in square brackets, D forms with d. Residues, ends and D or L forms follow the SMILES beside them. *: point of attachment. Ileψ(thiazoline)Cys = CC[C@H](C)[C@H](N)C1=N[C@H](C(=O)*)CS1; dOrn = NCCC[C@@H](N)C(=O)O

Columns and labels:
[1] = system: enkephalinases in human blood serum; assay: Activity of enkephalinases in human blood serum ([3H]Leu-enkephalin disintegration); format: biochemical; conditions: 0.15 μM [3H]Leu-enkephalin
Experimental: The ability of peptide H-Glu-Asp-Gly-OH to influence the activity of endogen opioid peptide degradation enzymes, i.e. […], was estimated in kinetic studies judging by disintegration of low concentrations (0.15 μM) of [^3H]Leu-enkephalin by human blood serum enzymes. Commonly used enkephalinase inhibitors N-carboxymethyl-Phe-Leu (N-CMPL) and bacitracin were used as comparison substances. Summary enkephalinase activity of the blood serum taken from 5 healthy donors, was estimated in vitro. Results were evaluated after 4 studies.

[2] = parameters: species or system male guinea pigs; conditions: guinea pig, in vivo
Experimental: (§1) Common toxicity of peptide H-Glu-Asp-Gly-OH was studied according to the requirements stated in the “Manual for experimental (pre-clinical) study of new pharmacological substances” (2000): acute toxicity in case of single administration of the substance, as well as sub-acute and chronic toxicity in case of long-term administration of the peptide.
The studies of chronic toxicity were conducted for 6 months, basing on the term of recommended clinical administration of the substance, on 92 male guinea pigs with body weight of 310-350 g. Experimental animals received the peptide daily, once a day, intramuscularly, for 6 months in the doses of 1 μg/kg, 0.1 mg/kg, 1 mg/kg in 0.5 ml of sterile 0.9% NaCl solution. Control animals received sterile 0.9% NaCl solution in the same volume and by the same schedule. Traditional methods were used for the evaluation of the following indices of the animals' peripheral blood: the quantity of erythrocytes, hemoglobin, reticulocytes, thrombocytes, leukocytes, leukocyte formula, erythrocyte sedimentation rate (ESR), erythrocyte resistance. Alongside with that, the content of total protein in the serum was identified using Lowry's method, as well as potassium and sodium content using the method of plasma spectrophotometry. After the completion of the experiment pathomorphologic studies of animal brain and spinal cord, spinal cord ganglia, thyroid gland, parathyroid glands, adrenal glands, testis, pituitary gland, heart, lungs, aorta, liver, kidneys, urinary bladder, pancreas, stomach, small intestine, large intestine, thymus, spleen, lymph nodes and bone marrow were performed.

[3] = system: biogen amines in rat blood serum; assay: Level of biogen amines in rat blood serum after peptide administration; format: in vivo; conditions: 2.5 μg/kg intraperitoneal daily for 5 days, vs control (FIG. 2)
Experimental: (§2) The study was performed on 27 white mongrel rats of both sexes with body weight of 300-320 g.
(§3) The animals were subjected to intraperitoneal injection of peptide H-Glu-Asp-Gly-OH in the dose of 2.5 μg/kg in 0.5 ml of sterile 0.9% NaCl solution daily for 5 days.
(§4) Control rats received sterile 0.9% NaCl solution in the same volume and by the same schedule.
(§5) Upon completion of peptide administration the animals were decapitated, and the content of noradrenaline, dopamine, 5-oxyindolacetic acid, serotonin and histamine was evaluated in the brain cortex and blood serum.

[4] = Human functional status under low oxygen partial pressure (pressure chamber rise to 5000 meters); format: in vivo; conditions: healthy men
Experimental: Effect of peptide H-Glu-Asp-Gly-OH on human functional status and working ability in extreme conditions under the effect of low oxygen partial pressure was studied by examining 80 healthy men aged 20-22 years. The participants of the study were subdivided into 3 groups: 20 men formed the control group, while main groups I and II consisted of 30 persons each. Background study, including the examination of respiratory, cardiovascular and central nervous systems was performed on the first day of the experiment.
After the completion of background study the members of main group I began receiving the pharmaceutical composition, containing peptide H-Glu-Asp-Gly-OH as its active base, by intranasal infusions, in the dose of 5.0 mg in 1 ml of physiological solution (subgroup I), in the dose of 100.0 μg (subgroup II) and in the dose of 1.0 μg in 1.0 ml of physiological solution (subgroup III) […], for 2 days. Thus, the members of main group I received the peptide H-Glu-Asp-Gly-OH intranasally in the dose of 10 mg (subgroup I), 200 μg (subgroup II) and 2 μg (subgroup III) per course.
Members of main group II began receiving the pharmaceutical composition, containing the peptide H-Glu-Asp-Gly-OH as its active base, after the completion of background study, intramuscularly, in the dose of 5.0 mg in 1 ml of physiological solution (subgroup I), in the dose of 100.0 μg (subgroup II) and in the dose of 1.0 μg in 1.0 ml of physiological solution (subgroup III) daily, once a day, for 2 days.
Members of the control group received placebo in the form water for injections.
On the 4th day of the experiment the members of all 3 groups were subjected to the effect of hypoxic hypoxia by “rising” them to the altitude of 5000 meters for 60 minutes of exposition without auxiliary oxygen supply, which was imitated using the pressure chamber SBK-80. Participants of the experiment were shortly examined before the beginning of the “rise”, during the experiment and after its completion. On the 5th day of the experiment all participants were subjected to a full scale final examination. During the study reactive anxiety in all participants was on the moderate level (31-45 points). […] After 2 days of administration of the pharmaceutical composition containing peptide H-Glu-Asp-Gly-OH in different doses as its active base reactive anxiety in participants of the experiment was reduced by 10-13% depending on the dosage and method of administration of the pharmaceutical composition as compared to the members of the control group.

[5] = Sub-acute toxicity, 90 days intramuscular administration; format: in vivo, white mongrel male rats; conditions: rats; intramuscular daily for 90 days; doses exceeding the therapeutic one by 100-1000 times
Text: as §1
Sub-acute toxicity was studied on 64 white mongrel male rats with body weight of 180-220 g. Experimental animals daily, once a day, for 90 days received the substance intramuscularly in the doses of 1 μg/kg, 0.1 mg/kg, 1 mg/kg in 0.5 ml of sterile 0.9% NaCl solution. Control animals received sterile 0.9% NaCl solution in the same volume. Morphological composition and properties of the animals' peripheral blood was studied before the administration of the substance, as well as on the 30th, 60th and 90th day after the beginning of the administration of the substance. Biochemical and coagulologic indices of the blood were studied upon completion of the experiment.

[6] = system: biogen amines in rat brain cortex; assay: Level of biogen amines in rat brain cortex after peptide administration; format: in vivo; conditions: 2.5 μg/kg intraperitoneal daily for 5 days, vs control (FIG. 1)
Experimental: as §2, §3, §4, §5

[7] = system: c-fos gene expression in the neurons of rat hypothalamic paraventricular nucleus; assay: c-fos gene expression in neurons of rat hypothalamic paraventricular nucleus under emotional stress; format: in vivo, Wistar rats
Experimental: The effect of peptide H-Glu-Asp-Gly-OH was studied in the paraventicular nucleus of hypothalamus (PVH) in stress-resistant and stress-prone animals, as well as in rats exposed to emotional stress.
The experiments were conducted on 28 Wistar rats.
Behavior of the animals was preliminarily (for the purpose of identifying the extent of their resistance to emotional stress) estimated in the “open field” test. The effectiveness of peptide H-Glu-Asp-Gly-OH was studied on stress-resistant and stress-prone rats. Peptide H-Glu-Asp-Gly-OH was administered intraperitoneally in the doses of 0.1 and 0.01 μg per rat 7-10 days after the first “open field” test. One hour after the injection the rats were exposed to the 60 minutes emotional stress, which was modulated by motional restriction.
To identify the cells, containing Fos protein, which is a product of the early c-fos gene expression, an immunohystochemical investigation of brain section with automated counting of Fos-positive cells was performed. The peculiarities of c-fos gene induction were studied in the PVH.

[8] = system: c-Fos protein in rat pineal gland; assay: c-Fos protein level and parenchyma status in rat pineal gland in osmotic stress; format: in vivo; conditions: rats, 48-hour osmotic stress
Experimental: Effect of intranasally administered H-Glu-Asp-Gly-OH peptide on c-Fos protein content in stress-affected rat pineal gland was studied. Immunohistochemical study of c-Fos protein content was performed in two groups of rats—intact and subjected to 48-hour osmotic stress. The latter were intranasally administered with peptide H-Glu-Asp-Gly-OH in the dose of 0.5 μg per animal in 0.1 ml of sterile physiological 0.9% NaCl solution (last infusion was performed 2 hours before taking the material). Pineal gland parenchyma in all groups of animals was studied using light optical appliances.

[9] = Acute toxicity, single intramuscular administration; format: in vivo, white mongrel male mice; conditions: mice, 1-5 mg/kg, dose exceeding the therapeutic one by more than 5000 times
Text: as §1
Acute toxicity was studied on 66 white mongrel male mice with body weight of 20-22 g. The animals were randomly subdivided into 6 equal groups. The substance was administered to the animals once, intramuscularly, in the doses of 1 mg/kg, 2 mg/kg, 3 mg/kg, 4 mg/kg, 5 mg/kg in 0.25 ml of sterile 0.9% NaCl solution. Control animals received 0.9% NaCl solution in the same volume.

[10] = 10 μg/ml, human blood serum of 5 healthy donors (FIG. 5)
[11] = end of the test, depending on the dosage and method of administration, placebo 10-11%

With `CC(C)C[C@H](NC(=O)[C@H](Cc1ccccc1)NCC(=O)O)C(=O)O` [N-CMPL, N-carboxymethyl-Phe-Leu] the “activity of blood serum enkephalinases” value [1, 10] was “comparable”.
For `N[C@@H](CCC(=O)O)C(=O)N[C@@H](CC(=O)O)C(=O)NCC(=O)O` [peptide H-Glu-Asp-Gly-OH, glutamyl-aspartyl-glycine] (H-Glu-Asp-Gly-OH), the “chronic toxicity: side effects” value [2] was “absence of side effects”, the “effect on ESR, erythrocyte resistance and biochemical indices of the blood serum” value [2] was “No reliable effect” and the “pathologic changes (general status, blood indices, internal organs, cardiovascular and respiratory systems, liver and kidney functions)” value [2] was “did not reveal any pathologic changes”. The “dopamine content in blood serum” value [3] was “decrease”, the “histamine content in blood serum” value [3] was “decrease” and the “serotonin content in blood serum” value [3] was “decrease”. The “study participants showing good tolerability to hypoxia” value ([4]; 5000 meters, 60 minutes, placebo 60%) was 80-90%, the “reduction of reactive anxiety as compared to the control group” value ([4]; after 2 days of administration, different doses, intranasal or intramuscular) was 10-13% and the “lung ventilation in case of dosed physical load” value ([4]; after hypoxia impact) was “reduced lung ventilation”. The “increase in heart rate (HR) caused by hypoxia” value ([4]; depending on the dose and method of administration, placebo 30-40%) was 10-20%, the “increase in maximum oxygen consumption” value [4, 11] was 15-20% and the “increase in physical working capacity index (PWC 170)” value [4, 11] was 15-20%. The “subjective status under hypoxic hypoxia versus initial level” value ([4]; intramuscular administration, different doses) was “equal to the initial level”, the “decrease in the subjective status under hypoxic hypoxia” value ([4]; intranasal infusion) was 4-5% and the “reactive anxiety level versus initial level” value ([4]; next day after the impact of hypoxia, independently of the method of administration) was “equal to the initial one”. The “subjective status better than the initial level” value ([4]; next day after the impact of hypoxia, intramuscular administration) was 15%, the “subjective status better than the initial level” value ([4]; next day after the impact of hypoxia, intranasal infusion) was 10% and the “sub-acute toxicity: side effects” value [5] was “absence of side effects”. The “dopamine content in brain cortex” value [6] was “reliable increase”, the “noradrenaline content in brain cortex” value [6] was “reliable increase” and the “serotonin content in brain cortex” value [6] was “reliable increase”. For the same compound, the “activity of blood serum enkephalinases” value [1, 10] was “inhibited”, the “number of Fos-positive neural cells in PVH” value ([7]; 0.01 μg per rat intraperitoneal, stress-resistant rats, both not exposed and exposed to stress) was “increase” and the “number of Fos-positive neurons in PVH” value ([7]; 0.1 μg per rat intraperitoneal, against the background of stress, stress-resistant animals) was “increased”. The “number of Fos-positive neural cells in PVH” value ([7]; 0.1 μg per rat intraperitoneal, both stress-resistant and stress-prone rats) was “reduced”, the “content of c-Fos protein in pinealocytes” value ([8]; 0.5 μg per animal intranasal (FIG. 3)) was “Mild but reliable increase” and the “osmotic stress induced dilation of capillaries and pericapillary space in pineal gland parenchyma” value ([8]; 0.5 μg per animal intranasal (FIG. 4)) was “partial reduction”. The “acute toxicity: toxic reactions” value [9] was “does not cause toxic reactions”.
In the case of `CC[C@H](C)[C@H](N)C1=N[C@H](C(=O)N[C@@H](CC(C)C)C(=O)N[C@H](CCC(=O)O)C(=O)N[C@H](C(=O)N[C@H]2CCCCNC(=O)[C@H](CC(N)=O)NC(=O)[C@@H](CC(=O)O)NC(=O)[C@H](Cc3cnc[nH]3)NC(=O)[C@@H](Cc3ccccc3)NC(=O)[C@H]([C@@H](C)CC)NC(=O)[C@@H](CCCN)NC2=O)[C@@H](C)CC)CS1` [bacitracin] ({Ileψ(thiazoline)Cys}-L[dE]IK[dOrn]I[dF]H[dD]N; lactam 4-C), the “activity of blood serum enkephalinases” value ([1]; 50 μg/ml, human blood serum of 5 healthy donors) is reported as “comparable”.
